Reference: patent publication US11179346B2, “Rupatadine-containing patch” (TEIKOKU SEIYAKU CO., LTD., priority 2017, dated 2021)

How the values were obtained:
[1] = Degree of solubility of rupatadine free base in each plaster ingredient (HPLC method); format: physicochemical
Excerpt: Test Example 1: Investigation of Degree of Solubility of Rupatadine Free Base in Each Ingredient
The degree of solubility of a rupatadine free base (sometimes also referred to as “rupatadine base”) as an active ingredient in each plaster ingredient was investigated.
Levulinic acid as a solubilizer, oleyl oleate and isopropyl myristate (IPM) as a softener, and lauromacrogol (BL-4,2: polyoxyethylene lauryl ether) as a surfactant were selected. The degree of solubility of the rupatadine base in each ingredient was investigated.
To 5 mL of each of levulinic acid, oleyl oleate, isopropyl myristate (IPM), and lauromacrogol (BL-4,2), an excessive amount of the rupatadine base was added and stirred. The mixture was filtered through a 0.45-μm membrane filter, to remove an undissolved substance. To 200 μL of the filtrate, methanol was added using a measuring flask to adjust the volume to a desired volume. The mixture was measured by HPLC.
A rupatadine concentration was measured by an external calibration curve method, and the degree of solubility was calculated by specific gravity conversion.

[2] = Degree of solubility of rupatadine base in acrylic adhesive (gravimetric method, presence or absence of crystal); format: physicochemical; details: in acrylic adhesive (OH group), 100 μm plaster, crystal observed by microscope
Method: For comparison, the degree of solubility of the rupatadine base in an acrylic adhesive as an adhesive base was also investigated.
The degree of solubility of the rupatadine base in the acrylic adhesive was tested by a gravimetric method.
To 1 g (solid content) of the acrylic adhesive, the rupatadine base was added, and the mixture was stirred and degassed by ultrasonic wave.
The adhesive solution was applied so as to have a thickness of 100 μm, and dried. A plaster was observed by a microscope (manufactured by KEYENCE CORPORATION).
The degree of solubility was determined by the presence or absence of crystal.

- Solubility (w/w %) ([1]; in isopropyl myristate (softener)): 2 w/w %
- Solubility (w/w %) ([1]; in lauromacrogol (BL-4,2) (surfactant)): 4 w/w %
- Solubility (w/w %) ([1]; in levulinic acid (solubilizer)): 29 w/w %
- Solubility (w/w %) ([1]; in oleyl oleate (softener)): 2 w/w %
- Solubility (w/w %) [2]: ≤15 to 16< w/w %
SMILES: Cc1cncc(CN2CCC(=C3c4ccc(Cl)cc4CCc4cccnc43)CC2)c1 [rupatadine base, 8-chloro-11-[1-[(5-methyl-3-pyridinyl)methyl]-piperidin-4-ylidene]-6,11-dihydro-5H-benzo[5,6]cyclohepta[1,2-b]pyridine]
